1 compound from patent publication US20080153839A1, “USE OF ANISIC ACID FOR PROMOTING DESQUAMATION” (L'OREAL, priority 2006, published 2008) can be followed below.

Molecules are shown by their SMILES.

For the assay, the system named is stratum corneum of normal human skin fragments kept in survival. Briefly: Cohesion of the stratum corneum on skin kept in survival, histological slices stained with hemalun-eosin. The assay is classed as cell-based. Particulars: for % increase in desquamation relative to the control skin / Scores (histological evaluation of the cohesion of the horny layer, semi-quantitative scores): topical; for Scores (histological evaluation of the cohesion of the horny layer, semi-quantitative scores): average of 6 donors, score 0-4, the higher the score the lower the cohesion. The protocol:
Fragments of normal human skin are obtained by plastic surgery from 6 different donors. They are placed in inserts, which are themselves positioned on culture wells containing culture medium specifically adapted for maintaining the skin fragments in survival (antibiotics, FCS). The anisic acid is applied topically according to the following protocol and in comparison with an untreated skin (control skin): • control skin • skin+[…] • skin+[…] The cohesion of the horny layer was evaluated using stained histological slices, according to the following semi-quantitative scores (evaluation on 10 to 15 fields at magnification 40): • score 0 absence of change of cohesion of the stratum corneum • score 1 slight reduction in cohesion of the stratum corneum • score 2 moderate reduction in cohesion of the stratum corneum • score 3 large reduction in cohesion of the stratum corneum • score 4 very large reduction in cohesion of the stratum corneum with exfoliation. An average is determined for each parameter from the results obtained on the 6 skin models. The statistical analysis is performed by means of the “reduced deviation” Student test or the paired samples test, with a risk of 5%.

Setting [1] is: 0.1% anisic acid, listed as anisic acid.
Where [2] appears, read: 1% anisic acid, listed as anisic acid.

For the compound `COc1ccc(C(=O)O)cc1` [Anisic acid, 4-methoxybenzoic acid], the “desquamating activity after topical application relative to the control skins” value (0.1% and 1%, histological reduction in the cohesion of the stratum corneum, no dose effect) is “significant desquamating activity”. Moreover, the “% increase in desquamation relative to the control skin” value was determined as 95.9% (0.1% anisic acid), 95.9% under setting [1], 115% (1% anisic acid) and 115% under setting [2]. The “Scores (histological evaluation of the cohesion of the horny layer, semi-quantitative scores)” value turned out to be 1.43 ± 0.7 (0.1% anisic acid), 1.43 under setting [1], 1.57 ± 0.4 (1% anisic acid) and 1.57 under setting [2].
